Experiments:
Assay in all cases: relative viability (nuclei count vs DMSO), 5 days (fraction); higher = more cells survive
[1] = tested on: IA-LM
Procedure, shortened: (§1)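 Lung cancer cell lines, seeded in 1536-well plates, were treated the following day by pin tool with a single drug or with five library-drug doses (not always all listed) in √10 steps on top of a fixed anchor-drug dose. Cells were fixed and nuclei stained in one step after 5 days, and nuclei were counted. Relative viability is the nuclei count for treated wells divided by that for vehicle wells, reported as medians of duplicate plates.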

[2] = tested on: NCI-H1703
Procedure, shortened: as §1

[3] = tested on: A549
Procedure, shortened: as §1

[4] = tested on: Calu-6
Procedure, shortened: as §1

[5] = tested on: NCI-H1299
Procedure, shortened: as §1

[6] = tested on: EBC-1
Procedure, shortened: as §1

[7] = tested on: NCI-H1563
Procedure, shortened: as §1

| SMILES | relative viability ([1]; first compound 0.08 µM) | relative viability ([1]; first compound 0.253 µM) | relative viability ([1]; first compound 0.8 µM) | relative viability ([1]; first compound 2.53 µM) | relative viability ([2]; first compound 0.08 µM) | relative viability ([2]; first compound 0.253 µM) | relative viability ([2]; first compound 0.8 µM) | relative viability ([2]; first compound 2.53 µM) | relative viability ([3]; first compound 0.08 µM) | relative viability ([3]; first compound 0.253 µM) | relative viability ([3]; first compound 0.8 µM) | relative viability ([3]; first compound 2.53 µM) | relative viability ([4]; first compound 0.08 µM) | relative viability ([4]; first compound 0.253 µM) | relative viability ([4]; first compound 0.8 µM) | relative viability ([4]; first compound 2.53 µM) | relative viability ([5]; first compound 0.08 µM) | relative viability ([5]; first compound 0.253 µM) | relative viability ([5]; first compound 0.8 µM) | relative viability ([5]; first compound 2.53 µM) | relative viability ([6]; first compound 0.08 µM) | relative viability ([6]; first compound 0.253 µM) | relative viability ([6]; first compound 0.8 µM) | relative viability ([6]; first compound 2.53 µM) | relative viability ([7]; first compound 0.08 µM) | relative viability ([7]; first compound 0.253 µM) | relative viability ([7]; first compound 0.8 µM) | relative viability ([7]; first compound 2.53 µM) |
| --- | --- | --- | --- | --- | --- | --- | --- | --- | --- | --- | --- | --- | --- | --- | --- | --- | --- | --- | --- | --- | --- | --- | --- | --- | --- | --- | --- | --- |
| Cc1cnc(-c2cnc(NCCNc3ccc(C#N)cn3)nc2-c2ccc(Cl)cc2Cl)[nH]1 + CC1(C)CCC(c2ccc(Cl)cc2)=C(CN2CCN(c3ccc(C(=O)NS(=O)(=O)c4ccc(N[C@H](CCN5CCOCC5)CSc5ccccc5)c(S(=O)(=O)C(F)(F)F)c4)cc3)CC2)C1 [Navitoclax] (partner 0.5 µM) | 0.78 | 0.71 | 0.809 | 0.695 | 1.15 | 1.03 | 1.2 | 1.08 | 1.23 | 1.18 | 1.21 | 1.18 | 0.826 | 0.773 | 0.789 | 0.717 | 1.04 | 1.02 | 1.09 | 1.04 | 0.399 | 0.351 | 0.542 | 0.23 | – | – | – | – |
| Cc1cnc(-c2cnc(NCCNc3ccc(C#N)cn3)nc2-c2ccc(Cl)cc2Cl)[nH]1 + CC(C)C[C@H](NC(=O)[C@H](Cc1ccccc1)NC(=O)c1cnccn1)B(O)O [Bortezomib] (partner 0.002 µM) | 0.849 | 0.855 | 1.06 | 0.891 | 0.337 | 0.352 | 0.5 | 0.699 | – | – | – | – | 0.933 | 0.996 | 1.06 | 1.03 | 1.05 | 1 | 1.02 | 0.969 | 0.607 | – | 0.546 | 0.509 | 0.831 | 0.944 | 0.827 | 0.914 |
| Cc1cnc(-c2cnc(NCCNc3ccc(C#N)cn3)nc2-c2ccc(Cl)cc2Cl)[nH]1 + CS(=O)(=O)CCNCc1ccc(-c2ccc3ncnc(Nc4ccc(OCc5cccc(F)c5)c(Cl)c4)c3c2)o1 [Lapatinib] (partner 2 µM) | 0.985 | 0.864 | 0.679 | 0.685 | 1.12 | 1.02 | 1.2 | 1.28 | 0.96 | 0.942 | 1.16 | 1.14 | 1.14 | 0.991 | 1 | 1.03 | 0.954 | 0.983 | 0.948 | 0.862 | 0.253 | 0.201 | 0.215 | 0.248 | 1.06 | 0.997 | 0.963 | 1.01 |
| Cc1cnc(-c2cnc(NCCNc3ccc(C#N)cn3)nc2-c2ccc(Cl)cc2Cl)[nH]1 + CS(=O)(=O)N1CCN(Cc2cc3nc(-c4cccc5[nH]ncc45)nc(N4CCOCC4)c3s2)CC1 [Pictilisib] (partner 1 µM) | 0.362 | 0.408 | – | 0.483 | 0.256 | 0.252 | 0.23 | 0.314 | 0.597 | 0.482 | 0.764 | 0.775 | 0.923 | 0.934 | 1.05 | 0.911 | 0.822 | 0.754 | 0.861 | 0.426 | 0.421 | 0.368 | 0.549 | 0.567 | 0.649 | 0.72 | 0.709 | 0.725 |

From the supplement of paper PMC10307832
